Tests used:
[1] = in vivo; cited from earlier work
[2] = cited from earlier work
[3] = target: T1, human ProRS (prolyl tRNA synthetase moiety of glutamyl prolyl tRNA synthetase, EPRS) (Homo sapiens, UniProt P07814); test: Assay for inhibitors of prolyl tRNA synthetase activity (ProRS assay, labeled proline incorporation); format: biochemical; details: human ProRS 20 nM, 10 min at 37° C.; read-out: EPRS IC50
T1 construct: The prolyl tRNA synthetase moiety (ProRS) in the cDNA of glutamyl prolyl tRNA synthetase was subcloned; 6xHis (N, cleaved yes); made in house; host or cells: E. coli BL21 (DE3)
T1 sequence (P07814 1007-1512 limits assumed): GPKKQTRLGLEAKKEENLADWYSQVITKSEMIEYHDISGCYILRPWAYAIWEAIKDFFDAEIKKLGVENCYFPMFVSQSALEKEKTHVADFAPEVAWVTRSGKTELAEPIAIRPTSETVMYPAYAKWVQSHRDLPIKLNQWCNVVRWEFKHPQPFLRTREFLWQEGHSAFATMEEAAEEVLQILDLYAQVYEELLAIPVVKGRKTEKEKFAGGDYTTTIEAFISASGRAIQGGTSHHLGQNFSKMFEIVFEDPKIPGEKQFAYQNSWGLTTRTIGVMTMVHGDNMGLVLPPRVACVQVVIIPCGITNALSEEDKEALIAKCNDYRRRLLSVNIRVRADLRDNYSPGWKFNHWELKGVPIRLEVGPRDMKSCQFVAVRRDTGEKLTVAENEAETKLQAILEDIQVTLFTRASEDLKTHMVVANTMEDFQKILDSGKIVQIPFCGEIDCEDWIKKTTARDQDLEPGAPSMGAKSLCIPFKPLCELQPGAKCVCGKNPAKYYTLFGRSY
In short: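 Biotinylated N-His-tagged human ProRS (20 nM) from E. coli, with Tris-Cl pH 7.5, 2 mM DTT, 5 mM ATP, MgCl2, bovine tRNA; compounds (10 μM to 0.5 nM) preincubated 15 min on ice. Started with proline (3.96 μM unlabeled, 1.04 μM labeled), 10 min at 37 °C, TCA-precipitated and scintillation-counted; IC50 from 4-parameter fit.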

Rat hepatocytes = test: GSH trapping assay in rat hepatocytes; format: in vitro ADME; details: 30 μM, 24 hr incubation, LC-MS
Protocol: Rat hepatocytes were isolated from male Sprague-Dawley rats (Vivo Biotech Ltd, HYD, India), weighing 230 to 280 g by the two step collagenase perfusion method (seglen, 1976; Berry M N and Friend D S.1969). Rat hepatocytes were cultured in Dulbecco's Modified Eagle's Medium (DMEM, Gibco®, USA) supplemented with 10^−6 M dexamethasone (Gibco®), 5% fetal bovine serum (Gibco®) and cocktail-A mix (CM3000, Gibco®) containing HEPES buffer (PH 7.4), GlutaMAX™, human recombinant insulin, penicillin and streptomycin. Initial cell viability assessed by Trypanblue stain 0.4% (Sigma, UK) and viability more than 80% were considered for culturing. Hepatocytes were seeded in 96 well type-I collagen coated plates (Gibco®) at 4×10^4 cells/well in 100 μL of the culture medium and incubated at 37° C. in 5% CO2 and 95% relative humidity (RH) for 4 hr of cell attachment.
After 4 hr incubation, rat hepatocytes were washed twice with pre-warmed (37° C.) DMEM incubation medium supplemented with 10^−7 M dexamethasone and cell maintenance cocktail-B (CM4000, Gibco®) solution to remove unattached cells. Post washing hepatocytes were treated with test and reference compounds in incubation medium at single concentration (30 μM) in duplicate and incubate further for 24 hr at 37° C. with 5% CO2 and 95% RH. The final concentration of DMSO in medium was 0.5%.
Post 24 hr incubation, hepatocyte samples were quenched with equal volumes of acetonitrile containing 0.1% formic acid followed by vortex mix, sonicate and centrifuge at 12000 rpm at room temperature for 5 min. Supernatant samples were analyzed for GSH adducts on a C18 reverse-phase column (Xbridge™ Shield, C18, 4.6×150 mm, 3.5 μm) with solvent A (10 mM ammonium formate and 0.1% formic acid/water) and solvent B (0.1% formic acid/acetonitrile).
The column was eluted with 5% B for 5 min and then with a linear gradient to 20% B over 10 min and it was maintained up to 15 min, then it was increased linearly to 40% B up to 27 min and then increase to 90% B up to 29 min, and then equilibrate back the column to 5% B up to 33 min at a flow rate of 0.6 ml/min. The column effluent was directed into the ESI source of a LTQ Velos Orbitrap mass spectrometer (Thermo Fisher Scientific, San Jose, Calif.). The ESI conditions were as follows: sheath gas flow rate, 40 arbitrary units; auxiliary gas, 30 arbitrary units; spray voltage, 4.5 kV; capillary temperature, 230° C.; capillary voltage, 30 V; and tube lens offset, 25 V. Data were acquired in positive ion mode using Xcalibur software (Thermo Fisher Scientific) with one full scan followed by two data-dependent scans of the most intense and the second most intense ions. During the data interpretation the characteristic fragments of neutral loss of glycine (75.0320 Da), pyroglutamic acid (129.0426 Da) and loss of neutral moiety GSH (307.0838 Da) and/or a specific fragment of (GSH+H)^+ (m/z 308.0911) were monitored. Finally the fragments ions with m/z e.g. 179.0485, 177.0328 and 162.0219 Da, which were derived from the glutathione moiety were used to report GSH positive results.

| Structure (SMILES) | IC50 [3] [nM] | GSH adduct formation (Rat hepatocytes) | anti-fibrotic properties [1] | toxicity in humans [2] |
| --- | --- | --- | --- | --- |
| O=C(CC1NCCCC1O)Cn1cnc2cc(Br)c(Cl)cc2c1=O (stereo not shown) [Halofuginone, 7-bromo-6-chloro-3-[3-(3-hydroxy-2-piperidinyl)-2-oxopropyl]-4(3H)-quinazolinone] | – | – | anti-fibrotic properties in vivo | nausea, vomiting, and fatigue, and possibly bleeding complications |
| COc1cc2ncn(C[C@@H](O)C[C@H]3NCCC[C@@H]3O)c(=O)c2cc1Cl.Cl [Example 33, 6-Chloro-3-{(S)-2-hydroxy-3-[(2R,3S)-3-hydroxypiperidin-2-yl]propyl}-7-methoxyquinazolin-4(3H)-one hydrochloride] | 116 | Negative | – | – |
| Cc1cc2ncn(C[C@@H](O)C[C@H]3NCCC[C@@H]3O)c(=O)c2cc1F.Cl [Example 32, 6-Fluoro-3-{(S)-2-hydroxy-3-[(2R,3S)-3-hydroxypiperidin-2-yl]propyl}-7-methylquinazolin-4(3H)-one hydrochloride] | 55 | Negative | – | – |

Further lines, with some results ahead:

| IC50 [3] [nM] | GSH adduct formation (Rat hepatocytes) | Structure (SMILES) | anti-fibrotic properties [1] | toxicity in humans [2] |
| --- | --- | --- | --- | --- |
| 19 | Negative | Cc1cc(Cl)cc2c(=O)n(C[C@@H](O)C[C@H]3NCCC[C@@H]3O)cnc12.Cl [Example 30, 6-Chloro-3-{(S)-2-hydroxy-3-[(2R,3S)-3-hydroxypiperidin-2-yl]propyl}-8-methylquinazolin-4(3H)-one hydrochloride] | – | – |
| 302 | Negative | Cl.O=c1c2c(F)cccc2ncn1C[C@@H](O)C[C@H]1NCCC[C@@H]1O [Example 40, 5-Fluoro-3-{(S)-2-hydroxy-3-[(2R,3S)-3-hydroxypiperidin-2-yl]propyl}quinazolin-4(3H)-one hydrochloride] | – | – |
